PMC11050067, “Development of a Novel, Potent, and Selective Sialyltransferase Inhibitor for Suppressing Cancer Metastasis” (International Journal of Molecular Sciences, 2024)

What was measured:
ST3GAL3 = target: T1, ST3GAL3 (Homo sapiens, UniProt Q11203); assay: phosphatase-coupled sialyltransferase activity assay (EA002 kit) with recombinant enzyme; type: biochemical
T1 construct: recombinant Human ST3GAL3 (R&D systems #10554-GT)
T1 sequence (Q11203 1-375): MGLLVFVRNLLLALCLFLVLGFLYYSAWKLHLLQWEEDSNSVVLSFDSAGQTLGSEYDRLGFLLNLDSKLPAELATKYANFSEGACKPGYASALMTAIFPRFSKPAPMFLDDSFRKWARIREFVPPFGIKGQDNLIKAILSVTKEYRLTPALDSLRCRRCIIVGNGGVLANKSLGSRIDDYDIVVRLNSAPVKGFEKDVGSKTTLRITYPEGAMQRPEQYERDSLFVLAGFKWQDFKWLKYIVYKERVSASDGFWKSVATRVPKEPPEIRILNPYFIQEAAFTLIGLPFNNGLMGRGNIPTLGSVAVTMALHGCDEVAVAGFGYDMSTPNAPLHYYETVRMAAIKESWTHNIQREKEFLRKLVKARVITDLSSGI

ST6GAL1 = target: T2, ST6GAL1 (Homo sapiens, UniProt P15907); assay: HPLC assay of sialylation of Galβ[…]-4GlcNAc with CMP-Neu5Ac by recombinant enzyme; type: biochemical
T2 construct: recombinant Human ST6GAL1 (R&D systems #7620-GT)
T2 sequence (P15907 27-406): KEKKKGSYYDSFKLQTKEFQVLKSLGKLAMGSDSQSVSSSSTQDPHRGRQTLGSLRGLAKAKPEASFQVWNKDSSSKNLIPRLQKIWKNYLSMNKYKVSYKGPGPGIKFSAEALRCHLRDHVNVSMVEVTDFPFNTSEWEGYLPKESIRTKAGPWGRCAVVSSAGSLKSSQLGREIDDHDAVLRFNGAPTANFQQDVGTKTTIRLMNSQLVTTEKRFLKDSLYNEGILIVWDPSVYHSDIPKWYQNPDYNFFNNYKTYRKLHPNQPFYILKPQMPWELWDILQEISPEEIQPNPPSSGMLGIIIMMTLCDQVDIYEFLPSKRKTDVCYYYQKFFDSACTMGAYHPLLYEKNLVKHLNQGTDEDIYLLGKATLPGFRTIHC

Compound: C[C@H](CCC(=O)OCCOCCOCCN=[N+]=[N-])C1CCC2C3CC[C@@H]4C[C@H](NC(=O)[C@H](CC(=O)O)Nc5ccc([N+](=O)[O-])c6nonc56)CC[C@]4(C)C3CC[C@@]21C (some centres unmarked) [FCW393]
- IC50 (ST3GAL3): 9.45 ± 0.11 µM
- IC50 (ST6GAL1): 7.76 ± 0.06 µM
